Data reported in patent publication US11945881B2, “Neoantigens expressed in ovarian cancer and their uses” (Janssen Biotech, Inc., priority 2020, dated 2024).

Assays:
CD8+ T cells = assay: exogenous autologous normal donor restimulation assay, TNFα/IFNγ double positive CD8+ T cells by flow cytometry; assay type: cell-based, human; conditions: for Fold change (CD8+) vs. DMSO: maximum CD8+ T-cell response (TNFα and IFNγ); for Fold change (CD8+) vs. DMSO / Frequency (TNFα + IFNγ + CD8 T cells): donor independent, peptide pool 10 μg/mL, healthy donors; for Frequency (TNFα + IFNγ + CD8 T cells): maximum CD8+ T-cell response; for Immunogenic (yes/no): positive if CD8+ and/or CD4+ double positive TNFα/IFNγ frequency >=3-fold over DMSO and at least 0.01%
CD4+ T cells = assay: exogenous autologous normal donor restimulation assay, TNFα/IFNγ double positive CD4+ T cells by flow cytometry; assay type: cell-based, human; conditions: donor independent, peptide pool 10 μg/mL, healthy donors; for Fold change (CD4+) vs. DMSO: maximum CD4+ T-cell response (TNFα and IFNγ); for Frequency (TNFα + IFNγ + CD4 T cells): maximum CD4+ T-cell response

Molecule	Fold change (CD8+) vs. DMSO (CD8+ T cells) [fold]	Frequency (TNFα + IFNγ + CD8 T cells) (CD8+ T cells) [%]	Immunogenic (yes/no) (CD8+ T cells)	Fold change (CD4+) vs. DMSO (CD4+ T cells) [fold]	Frequency (TNFα + IFNγ + CD4 T cells) (CD4+ T cells) [%]
LSPGGACVDIDECDRQ [AS81, neoantigen, alternative splicing of FBN3]	10.83	0.1	Yes	3.22	0.028
RASCGAQKACDVNQLTSS [FUS17, neoantigen, gene fusion C20orf204->TCEA2]	13.53	0.23	Yes	6.91	0.045
LCAISVDRCAALPARAPAPPRPARRPHRGLCAVRRPLGAPRRFVAVAVP [AS159, neoantigen, alternative splicing of DRD4]	39.04	0.12	Yes	12.5	0.081
FLIVAEIVTLLIAFI [FUS20, neoantigen, gene fusion CMTM8->CMTM7]	28.23	0.54	Yes	2.36	0.019
NLQLLTQGYSGIWRYP [AS118, neoantigen, alternative splicing of SAMD12]	2.42	0.038	Yes	5.25	0.034
LLFFVAGEVLRHEEFE [FUS15, neoantigen, gene fusion NXN->GLOD4]	8.84	0.19	yes	16.21	0.08
RGGRGAQENSLD [FUS10, neoantigen, gene fusion SCNN1A->TNFRSF1A]	896.55	19.5	yes	20.13	0.072
NIEDVATEDGRHGGCHHGPGR [AS71, neoantigen, alternative splicing of SLC6A2]	11.78	0.074	Yes	10.95	0.038
APSCGVSRAICDRGCH [AS79, neoantigen, alternative splicing of FBN3]	2.88	0.076	Yes	5.85	0.12
VQKLKNARSLNLEDQI [AS83, neoantigen, alternative splicing of NUF2]	10.83	0.14	Yes	71.14	0.061
RNTLKESSKLKSSFEYWFAGFFSSSSSFFFLSRKFCFVFCLCWVESLGGVS [AS157, neoantigen, alternative splicing of ZIC4]	51.78	0.16	Yes	5.53	0.083
SHALNWNKIGRMFRASRV [AS65, neoantigen, alternative splicing of LCN10]	82.3	2.2	Yes	73.69	0.64
RRHGEVQGLLEREKTARGNPSG [AS72, neoantigen, alternative splicing of SMC1B]	8.6	0.23	Yes	4.15	0.036
KHHLWALEAAWLSGRSPLSEPQLPLQPSGNSSSV [AS120, neoantigen, alternative splicing of STRA6]	6.24	0.067	Yes	2.01	0.013
PGHGAICREEV [AS62, neoantigen, alternative splicing of IMPG2]	28.06	0.055	Yes	14.25	0.063
MPGHGAICSGSSRQPD [AS82, neoantigen, alternative splicing of IMPG2]	13.55	0.82	Yes	5.88	0.026
HFVRSQDKGMVWTPEPSALPRTPRRHPGLSLCSQWGGLRVGPPAARPGWSLAHVLRVTLLQFHPNPGKETQKKQRCPKEDPSRIWRA (neoantigen, alternative splicing of RUFY4) HFVRSQDKGMVWTPEPSALPRTPRRHPGLSLCSQWGGLRVGPPAARPGWSLAHVLRVTLLQFHPNPGKETQKKQRCPKEDPSRIWRA	69.96	1.87	Yes	279.88	0.28
HQYIVVQDIHTETQHSALGAQPADSIPPFLQHTLQHLACPSLELPGNEQARREKRRRDDAFSDSL (neoantigen, alternative splicing of SRGAP3) HQYIVVQDIHTETQHSALGAQPADSIPPFLQHTLQHLACPSLELPGNEQARREKRRRDDAFSDSL	14.89	0.16	Yes	12.03	0.078
LKQDVRSGGPGARQLRGGLLRQAAPPGRRTRPFPHRARLHTALPTARLPGGPAAASRPAFRAAPRESGASVPGPSASPG (neoantigen, alternative splicing of IL17RC) LKQDVRSGGPGARQLRGGLLRQAAPPGRRTRPFPHRARLHTALPTARLPGGPAAASRPAFRAAPRESGASVPGPSASPG	25.75	0.36	Yes	10.73	0.12
ARLRELRQCGGGRGKRGQGWGVRDETITGRPAVLGSPFLSPALAPPSRLMGDLWDGQSAGWSPGSPASPFCGGW (neoantigen, alternative splicing of HSF4) ARLRELRQCGGGRGKRGQGWGVRDETITGRPAVLGSPFLSPALAPPSRLMGDLWDGQSAGWSPGSPASPFCGGW	66.2	0.62	Yes	6.63	0.043
RDLQCPKKTQTPQAQSRLESERKKNTLTWLVPTPWDWRQWSTAPSRGLVWPPPPVDYELWKSS (neoantigen, alternative splicing of LRRC75B) RDLQCPKKTQTPQAQSRLESERKKNTLTWLVPTPWDWRQWSTAPSRGLVWPPPPVDYELWKSS	143.98	1.28	Yes	10.84	0.047
